{"source": "patent US4992449A", "about": "“7-(substituted)cycloalkylamino-1 -(substituted)-6-fluoro-1,4-dihydro-4-oxo-3-quinolinecarboxylic acids” (American Cyanamid Company, priority 1990, dated 1991)", "test_in_all_cases": "In vitro antibacterial MIC, agar plate dilution", "assay_type_in_all_cases": "cell-based", "key": {"[1]": {"system": "Proteus rettgeri IO 83-21", "details": "Providencia rettgeri, IO8321, Mueller-Hinton agar, 10^4 CFU, 18 hours, 35° C.", "description": "(§1) The in vitro antimicrobial spectrum of the compounds of this invention were determined by the agar plate dilution method with Mueller-Hinton agar and an inoculum of each test organism of approximately 10^4 colony forming units delivered by the Steers replicating device. The minimal inhibitory concentration (MIC) in mcg/ml is defined as the lowest concentration of test compound that inhibited visible growth after 18 hours incubation at 35° C. Results are given in Table I, with the test compounds identified by the number of their hereinafter described examples"}, "[2]": {"system": "Moranella morganii VGH 84-12", "details": "Mueller-Hinton agar, 10^4 CFU, 18 hours, 35° C.", "description": "as §1"}, "[3]": {"system": "Klebsiella neumoniae IO 83-5", "details": "IO835, Mueller-Hinton agar, 10^4 CFU, 18 hours, 35° C.", "description": "as §1"}, "[4]": {"system": "Moranella morganii CMC 84-38", "details": "Mueller-Hinton agar, 10^4 CFU, 18 hours, 35° C.", "description": "as §1"}, "[5]": {"system": "Enterobacter cloacae MOR 84-30", "details": "MOR8430, Mueller-Hinton agar, 10^4 CFU, 18 hours, 35° C.", "description": "as §1"}, "[6]": {"system": "Klebsiella neumoniae MOR 84-24", "details": "MOR8424, Mueller-Hinton agar, 10^4 CFU, 18 hours, 35° C.", "description": "as §1"}, "[7]": {"system": "Providencia stuartii CMC 83-3", "details": "CMC833, Mueller-Hinton agar, 10^4 CFU, 18 hours, 35° C.", "description": "as §1"}, "[8]": {"system": "Pseudomonas aeruginosa VGH 84-3", "details": "VGH843, Mueller-Hinton agar, 10^4 CFU, 18 hours, 35° C.", "description": "as §1"}, "[9]": {"system": "Staphylococcus aureus VGH 84-47", "details": "VGH8447, Mueller-Hinton agar, 10^4 CFU, 18 hours, 35° C.", "description": "as §1"}, "[10]": {"system": "Morganella morganii MOR 84-45", "details": "MOR8445, Mueller-Hinton agar, 10^4 CFU, 18 hours, 35° C.", "description": "as §1"}, "[11]": {"system": "Staphylococcus aureus K 82-26", "details": "K8226, Mueller-Hinton agar, 10^4 CFU, 18 hours, 35° C.", "description": "as §1"}, "[12]": {"system": "Enterobacter cloacae VGH 84-39", "details": "VGH8439, Mueller-Hinton agar, 10^4 CFU, 18 hours, 35° C.", "description": "as §1"}, "[13]": {"system": "Escherichia coli VGH 84-19", "details": "VGH8419, Mueller-Hinton agar, 10^4 CFU, 18 hours, 35° C.", "description": "as §1"}, "[14]": {"system": "Streptococcus faecalis UCI 85-30", "details": "Enterococcus faecalis, UCI8530, Mueller-Hinton agar, 10^4 CFU, 18 hours, 35° C.", "description": "as §1"}, "[15]": {"system": "Staphylococcus aureus CMC 83-131", "details": "CMC83131, Mueller-Hinton agar, 10^4 CFU, 18 hours, 35° C.", "description": "as §1"}, "[16]": {"system": "Serratia marcescens IO 83-63", "details": "IO8363, Mueller-Hinton agar, 10^4 CFU, 18 hours, 35° C.", "description": "as §1"}, "[17]": {"system": "Serratia marcescens CMC 83-74", "details": "CMC8374, Mueller-Hinton agar, 10^4 CFU, 18 hours, 35° C.", "description": "as §1"}, "[18]": {"system": "Escherichia coli MOR 84-20", "details": "MOR8420, Mueller-Hinton agar, 10^4 CFU, 18 hours, 35° C.", "description": "as §1"}, "[19]": {"system": "Staphylococcus faecalis CMC 83-120", "details": "CMC83120, Mueller-Hinton agar, 10^4 CFU, 18 hours, 35° C.", "description": "as §1"}, "[20]": {"system": "Staphylococcus faecalis VGH 84-69", "details": "VGH8469, Mueller-Hinton agar, 10^4 CFU, 18 hours, 35° C.", "description": "as §1"}, "[21]": {"system": "Serratia marcescens MOR 84-41", "details": "MOR8441, Mueller-Hinton agar, 10^4 CFU, 18 hours, 35° C.", "description": "as §1"}, "[22]": {"system": "Escherichia coli ATCC 25922", "details": "Escherichia coli, ATCC25922, 18 h, Table I; Escherichia coli ATCC 25922; Mueller-Hinton agar, 10^4 CFU, 18 hours, 35° C.; read-out: MIC", "description": "as §1"}, "[23]": {"system": "Pseudomonas aeruginosa CMC 83-20", "details": "CMC8320, Mueller-Hinton agar, 10^4 CFU, 18 hours, 35° C.", "description": "as §1"}, "[24]": {"system": "Staphylococcus aureus ATCC 29213", "details": "Staphylococcus aureus, ATCC29213, 18 h, Table I, Mueller-Hinton agar, 10^4 CFU, 18 hours, 35° C., read-out: MIC", "description": "as §1"}, "[25]": {"system": "Enterobacter cloacae K 84-10", "details": "K8410, Mueller-Hinton agar, 10^4 CFU, 18 hours, 35° C.", "description": "as §1"}, "[26]": {"system": "Pseudomonas aeruginosa VGH 84-16", "details": "VGH8416, Mueller-Hinton agar, 10^4 CFU, 18 hours, 35° C.", "description": "as §1"}, "[27]": {"system": "Klebsiella neumoniae CMC 84-31", "details": "CMC8431, Mueller-Hinton agar, 10^4 CFU, 18 hours, 35° C.", "description": "as §1"}, "[28]": {"system": "Escherichia coli CMC 84-50", "details": "CMC8450, Mueller-Hinton agar, 10^4 CFU, 18 hours, 35° C.", "description": "as §1"}, "[29]": {"system": "Citrobacter diversus K 82-24", "details": "Citrobacter koseri, K8224, Mueller-Hinton agar, 10^4 CFU, 18 hours, 35° C.", "description": "as §1"}}, "data": [{"smiles": "N[C@H]1CCCC[C@H]1Nc1cc2c(cc1F)c(=O)c(C(=O)O)cn2C1CC1", "note": "(relative stereo) [Example 1, Cis-7-[(2-Aminocyclohexyl)amino]1-cyclopropyl-6-fluoro-1,4-dihydro-4-oxo-3-quinolinecarboxylic acid]", "values": [{"measurement": "MIC", "setting": "[1]", "result": 2, "unit": "µg/mL"}, {"measurement": "MIC", "setting": "[2]", "result": 1, "unit": "µg/mL"}, {"measurement": "MIC", "setting": "[3]", "result": 1, "unit": "µg/mL"}, {"measurement": "MIC", "setting": "[4]", "result": 1, "unit": "µg/mL"}, {"measurement": "MIC", "setting": "[5]", "result": 1, "unit": "µg/mL"}, {"measurement": "MIC", "setting": "[6]", "result": 1, "unit": "µg/mL"}, {"measurement": "MIC", "setting": "[7]", "result": "> 16", "unit": "µg/mL"}, {"measurement": "MIC", "setting": "[8]", "result": "> 16", "unit": "µg/mL"}, {"measurement": "MIC", "setting": "[9]", "result": 2, "unit": "µg/mL"}, {"measurement": "MIC", "setting": "[10]", "result": 0.5, "unit": "µg/mL"}, {"measurement": "MIC", "setting": "[11]", "result": 2, "unit": "µg/mL"}, {"measurement": "MIC", "setting": "[12]", "result": 0.5, "unit": "µg/mL"}, {"measurement": "MIC", "setting": "[13]", "result": 0.25, "unit": "µg/mL"}, {"measurement": "MIC", "setting": "[14]", "result": 4, "unit": "µg/mL"}, {"measurement": "MIC", "setting": "[15]", "result": 4, "unit": "µg/mL"}, {"measurement": "MIC", "setting": "[16]", "result": 1, "unit": "µg/mL"}, {"measurement": "MIC", "setting": "[17]", "result": 16, "unit": "µg/mL"}, {"measurement": "MIC", "setting": "[18]", "result": 0.25, "unit": "µg/mL"}, {"measurement": "MIC", "setting": "[19]", "result": 4, "unit": "µg/mL"}, {"measurement": "MIC", "setting": "[20]", "result": 4, "unit": "µg/mL"}, {"measurement": "MIC", "setting": "[21]", "result": 0.5, "unit": "µg/mL"}, {"measurement": "MIC", "setting": "[22]", "result": 0.25, "unit": "µg/mL"}, {"measurement": "MIC", "setting": "[23]", "result": 4, "unit": "µg/mL"}, {"measurement": "MIC", "setting": "[24]", "result": 2, "unit": "µg/mL"}, {"measurement": "MIC", "setting": "[25]", "result": 0.5, "unit": "µg/mL"}, {"measurement": "MIC", "setting": "[26]", "result": 8, "unit": "µg/mL"}, {"measurement": "MIC", "setting": "[27]", "result": 1, "unit": "µg/mL"}, {"measurement": "MIC", "setting": "[28]", "result": 1, "unit": "µg/mL"}, {"measurement": "MIC", "setting": "[29]", "result": 0.25, "unit": "µg/mL"}]}, {"smiles": "N[C@H]1CCC[C@H]1Nc1cc2c(cc1F)c(=O)c(C(=O)O)cn2C1CC1", "note": "(relative stereo) [Example 2, Cis-7-[(2-Aminocyclopentyl)amino]-1-cyclopropyl-6-fluoro-1,4-dihydro-4-oxo-3-quinolinecarboxylic acid]", "values": [{"measurement": "MIC", "setting": "[1]", "result": 4, "unit": "µg/mL"}, {"measurement": "MIC", "setting": "[2]", "result": 4, "unit": "µg/mL"}, {"measurement": "MIC", "setting": "[3]", "result": 2, "unit": "µg/mL"}, {"measurement": "MIC", "setting": "[4]", "result": 1, "unit": "µg/mL"}, {"measurement": "MIC", "setting": "[5]", "result": 2, "unit": "µg/mL"}, {"measurement": "MIC", "setting": "[6]", "result": 1, "unit": "µg/mL"}, {"measurement": "MIC", "setting": "[7]", "result": "> 16", "unit": "µg/mL"}, {"measurement": "MIC", "setting": "[8]", "result": "> 16", "unit": "µg/mL"}, {"measurement": "MIC", "setting": "[9]", "result": 4, "unit": "µg/mL"}, {"measurement": "MIC", "setting": "[10]", "result": 2, "unit": "µg/mL"}, {"measurement": "MIC", "setting": "[11]", "result": 4, "unit": "µg/mL"}, {"measurement": "MIC", "setting": "[12]", "result": 1, "unit": "µg/mL"}, {"measurement": "MIC", "setting": "[13]", "result": 1, "unit": "µg/mL"}, {"measurement": "MIC", "setting": "[14]", "result": "> 16", "unit": "µg/mL"}, {"measurement": "MIC", "setting": "[15]", "result": "> 16", "unit": "µg/mL"}, {"measurement": "MIC", "setting": "[16]", "result": 2, "unit": "µg/mL"}, {"measurement": "MIC", "setting": "[17]", "result": "> 16", "unit": "µg/mL"}, {"measurement": "MIC", "setting": "[18]", "result": 0.5, "unit": "µg/mL"}, {"measurement": "MIC", "setting": "[19]", "result": "> 16", "unit": "µg/mL"}, {"measurement": "MIC", "setting": "[20]", "result": "> 16", "unit": "µg/mL"}, {"measurement": "MIC", "setting": "[21]", "result": 1, "unit": "µg/mL"}, {"measurement": "MIC", "setting": "[22]", "result": 0.5, "unit": "µg/mL"}, {"measurement": "MIC", "setting": "[23]", "result": 8, "unit": "µg/mL"}, {"measurement": "MIC", "setting": "[24]", "result": 4, "unit": "µg/mL"}, {"measurement": "MIC", "setting": "[25]", "result": 1, "unit": "µg/mL"}, {"measurement": "MIC", "setting": "[26]", "result": 16, "unit": "µg/mL"}, {"measurement": "MIC", "setting": "[27]", "result": 2, "unit": "µg/mL"}, {"measurement": "MIC", "setting": "[28]", "result": 0.5, "unit": "µg/mL"}, {"measurement": "MIC", "setting": "[29]", "result": 0.5, "unit": "µg/mL"}]}]}
